Results taken from ChEMBL document CHEMBL3112558 (Bioorg Med Chem Lett, 2014).

Columns and labels:
Protease = Protease (Human immunodeficiency virus 1, UniProt Q9YQ12); experiment: Inhibition of HIV-1 protease
[1] = tested on: Human immunodeficiency virus 1; experiment: Antiviral activity against HIV1 by cell based assay; format: functional, organism-based
CYP3A4 = CYP3A4 (Homo sapiens, UniProt P08684); experiment: Ratio of compound IC50 to ritonavir IC50 for human CYP3A4-mdiated midazolam 1'-hydroxylase activity; format: ADME; conditions: probe midazolam, read-out: Ratio IC50
Cytochrome P450 3A4 = Cytochrome P450 3A4 (Homo sapiens, UniProt P08684); experiment: Inhibition of human CYP3A4-mdiated midazolam 1'-hydroxylase activity
Cytochrome P450 2C19 = Cytochrome P450 2C19 (Homo sapiens, UniProt P33261); experiment: Inhibition of human CYP2C19
Cytochrome P450 1A2 = target: T1, Cytochrome P450 1A2 (Homo sapiens, UniProt P05177); experiment: Inhibition of human CYP1A2
T1 sequence (P05177 whole entry): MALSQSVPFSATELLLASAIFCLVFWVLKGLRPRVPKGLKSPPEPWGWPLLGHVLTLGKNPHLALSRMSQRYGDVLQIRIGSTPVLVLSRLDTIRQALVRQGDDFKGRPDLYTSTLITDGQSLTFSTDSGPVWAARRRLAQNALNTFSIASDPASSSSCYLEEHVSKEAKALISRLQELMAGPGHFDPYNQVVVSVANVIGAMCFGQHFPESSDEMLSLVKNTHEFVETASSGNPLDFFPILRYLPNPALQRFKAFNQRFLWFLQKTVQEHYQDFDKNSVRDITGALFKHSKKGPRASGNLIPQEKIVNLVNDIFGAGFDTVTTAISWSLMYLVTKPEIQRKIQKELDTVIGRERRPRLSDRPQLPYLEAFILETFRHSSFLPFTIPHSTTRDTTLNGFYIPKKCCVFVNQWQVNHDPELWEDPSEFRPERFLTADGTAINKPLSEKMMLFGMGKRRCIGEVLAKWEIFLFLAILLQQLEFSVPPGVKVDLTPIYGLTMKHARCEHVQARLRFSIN

Cytochrome P450 2C9 = Cytochrome P450 2C9 (Homo sapiens, UniProt P11712); experiment: Inhibition of human CYP2C9
Cytochrome P450 2D6 = Cytochrome P450 2D6 (Homo sapiens, UniProt P10635); experiment: Inhibition of human CYP2D6
Sequence of Cytochrome P450 2D6 (P10635 whole entry): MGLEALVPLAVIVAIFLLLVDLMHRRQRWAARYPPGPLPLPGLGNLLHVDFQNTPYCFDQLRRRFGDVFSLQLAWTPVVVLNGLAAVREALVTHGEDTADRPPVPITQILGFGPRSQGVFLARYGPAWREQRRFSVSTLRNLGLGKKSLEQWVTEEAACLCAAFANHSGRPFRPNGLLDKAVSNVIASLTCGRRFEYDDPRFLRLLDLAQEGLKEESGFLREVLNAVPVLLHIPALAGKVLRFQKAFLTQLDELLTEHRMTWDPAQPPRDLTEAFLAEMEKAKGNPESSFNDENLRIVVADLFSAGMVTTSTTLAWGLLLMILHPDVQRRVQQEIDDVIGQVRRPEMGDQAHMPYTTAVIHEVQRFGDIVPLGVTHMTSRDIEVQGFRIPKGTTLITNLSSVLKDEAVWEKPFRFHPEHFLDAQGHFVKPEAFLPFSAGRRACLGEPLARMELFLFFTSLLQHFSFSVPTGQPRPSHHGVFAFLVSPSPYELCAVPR

Sequence of Protease (Q9YQ12 whole entry): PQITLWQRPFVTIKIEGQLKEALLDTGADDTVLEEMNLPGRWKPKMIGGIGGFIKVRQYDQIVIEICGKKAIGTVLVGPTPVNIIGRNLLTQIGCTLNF
Sequence of Cytochrome P450 2C9 (P11712 whole entry): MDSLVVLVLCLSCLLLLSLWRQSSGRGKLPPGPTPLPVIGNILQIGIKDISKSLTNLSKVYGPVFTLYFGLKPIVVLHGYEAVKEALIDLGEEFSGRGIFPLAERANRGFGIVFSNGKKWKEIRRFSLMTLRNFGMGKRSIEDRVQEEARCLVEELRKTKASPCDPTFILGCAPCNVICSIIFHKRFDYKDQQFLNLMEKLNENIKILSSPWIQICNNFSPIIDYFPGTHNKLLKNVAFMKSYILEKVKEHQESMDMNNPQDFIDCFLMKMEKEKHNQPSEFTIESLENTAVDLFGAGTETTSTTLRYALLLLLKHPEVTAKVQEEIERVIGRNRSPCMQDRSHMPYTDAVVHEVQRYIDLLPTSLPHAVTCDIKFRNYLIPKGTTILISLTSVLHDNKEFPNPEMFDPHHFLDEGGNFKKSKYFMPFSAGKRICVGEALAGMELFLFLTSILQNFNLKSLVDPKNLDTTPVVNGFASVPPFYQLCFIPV
Sequence of Cytochrome P450 2C19 (P33261 whole entry): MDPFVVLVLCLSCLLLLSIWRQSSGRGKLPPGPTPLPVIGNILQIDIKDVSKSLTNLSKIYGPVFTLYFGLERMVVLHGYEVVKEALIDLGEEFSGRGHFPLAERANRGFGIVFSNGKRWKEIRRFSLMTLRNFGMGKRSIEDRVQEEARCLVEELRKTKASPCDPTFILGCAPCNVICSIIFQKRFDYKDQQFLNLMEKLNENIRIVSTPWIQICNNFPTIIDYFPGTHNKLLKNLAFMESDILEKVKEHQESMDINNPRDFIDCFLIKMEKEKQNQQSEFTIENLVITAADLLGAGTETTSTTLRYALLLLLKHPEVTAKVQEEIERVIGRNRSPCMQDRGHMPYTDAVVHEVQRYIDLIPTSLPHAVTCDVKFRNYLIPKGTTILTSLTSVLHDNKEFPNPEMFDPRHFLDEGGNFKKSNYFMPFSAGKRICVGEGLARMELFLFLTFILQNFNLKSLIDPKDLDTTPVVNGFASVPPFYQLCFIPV
Sequence of Cytochrome P450 3A4 (P08684 whole entry): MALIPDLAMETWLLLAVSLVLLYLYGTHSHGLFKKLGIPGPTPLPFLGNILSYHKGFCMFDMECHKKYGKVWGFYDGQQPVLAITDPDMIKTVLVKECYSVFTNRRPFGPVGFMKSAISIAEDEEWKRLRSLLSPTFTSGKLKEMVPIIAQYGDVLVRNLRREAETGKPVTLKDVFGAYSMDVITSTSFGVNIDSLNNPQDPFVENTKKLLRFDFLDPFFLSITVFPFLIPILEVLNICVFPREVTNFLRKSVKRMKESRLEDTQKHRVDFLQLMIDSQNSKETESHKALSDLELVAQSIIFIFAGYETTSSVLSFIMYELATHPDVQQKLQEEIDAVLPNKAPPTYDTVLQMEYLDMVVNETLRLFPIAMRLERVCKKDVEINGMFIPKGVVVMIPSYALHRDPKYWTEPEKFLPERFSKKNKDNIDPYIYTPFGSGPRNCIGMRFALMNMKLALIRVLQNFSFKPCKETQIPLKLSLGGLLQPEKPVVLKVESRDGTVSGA
Sequence of CYP3A4 (P08684 whole entry): as above

Row | IC50 (Protease) [µM] | EC50 [1] [µM] | SMILES | also measured
1 | 0.03 | 5 | CC(C)c1nc(CN(C)C(=O)N[C@@H](Cn2cccn2)C(=O)N[C@H](CC[C@H](Cc2ccccc2)NC(=O)OCc2cncs2)Cc2ccccc2)cs1 | 
2 | 4.3 | 12 | CN(Cc1cncs1)C(=O)N[C@@H](CO)C(=O)N[C@H](CC[C@H](Cc1ccccc1)NC(=O)OCc1cncs1)Cc1ccccc1 | 
3 | > 30 | > 30 | CC(C)c1nc(CN(C)C(=O)N[C@@H](CO)C(=O)N[C@@H](CC[C@@H](Cc2ccccc2)NC(=O)OCc2cncs2)Cc2ccccc2)cs1 | 
4 | 3.59 | 4 | CC(C)[C@H](NC(=O)N(Cc1cscn1)C1CC1)C(=O)N[C@H](CC[C@H](Cc1ccccc1)NC(=O)OCc1cncs1)Cc1ccccc1 | selectivity ratio (CYP3A4): 80; IC50 (Cytochrome P450 3A4): < 0.1 µM
5 | 19.3 | 20 | O=C(N[C@H](CC[C@H](Cc1ccccc1)NC(=O)[C@H](CO)NC(=O)N(Cc1cncs1)C1CC1)Cc1ccccc1)OCc1cncs1 | 
6 | 3 | > 10 | CC(C)c1nc(CN(C)C(=O)N[C@@H](Cc2c[nH]cn2)C(=O)N[C@H](CC[C@H](Cc2ccccc2)NC(=O)OCc2cncs2)Cc2ccccc2)cs1 | 
7 | > 30 | > 30 | CC(C)[C@H](NC(=O)N(C)Cc1cscn1)C(=O)N[C@@H](CC[C@@H](Cc1ccccc1)NC(=O)OCc1cncs1)Cc1ccccc1 | IC50 (Cytochrome P450 3A4): 0.12 µM
8 | > 30 | > 30 | O=C(N[C@@H](CC[C@@H](Cc1ccccc1)NC(=O)[C@H](CO)NC(=O)N(Cc1cncs1)C1CC1)Cc1ccccc1)OCc1cncs1 | 
9 | > 30 | > 30 | CC(C)c1nc(CN(C)C(=O)N[C@@H](CCN)C(=O)N[C@H](CC[C@H](Cc2ccccc2)NC(=O)OCc2cncs2)Cc2ccccc2)cs1 | IC50 (Cytochrome P450 2C19): > 25 µM; IC50 (Cytochrome P450 1A2): > 25 µM; IC50 (Cytochrome P450 2C9): > 25 µM; IC50 (Cytochrome P450 2D6): 0.8 µM
10 | 0.01 | 10 | CC(C)c1nc(CN(C)C(=O)N[C@@H](CC(=O)O)C(=O)N[C@H](CC[C@H](Cc2ccccc2)NC(=O)OCc2cncs2)Cc2ccccc2)cs1 | 
11 |  | 2.5 | CN(Cc1cncs1)C(=O)NCCC(=O)N[C@H](CC[C@H](Cc1ccccc1)NC(=O)OCc1cncs1)Cc1ccccc1 | IC50 (Cytochrome P450 3A4): 0.13 µM
12 | 1.41 | 2.5 | CC(C)c1nc(CN(C(=O)N[C@@H](CO)C(=O)N[C@H](CC[C@H](Cc2ccccc2)NC(=O)OCc2cncs2)Cc2ccccc2)C2CC2)cs1 | 
13 | > 30 | > 30 | CNCC[C@H](NC(=O)N(C)Cc1csc(C(C)C)n1)C(=O)N[C@H](CC[C@H](Cc1ccccc1)NC(=O)OCc1cncs1)Cc1ccccc1 | 
14 |  | 0.05 | CC(C)c1nc(CN(C)C(=O)N[C@H](C(=O)N[C@@H](Cc2ccccc2)C[C@H](O)[C@H](Cc2ccccc2)NC(=O)OCc2cncs2)C(C)C)cs1 [RITONAVIR] | 
15 | 0.55 | 0.75 | CC(C)c1nc(CN(C(=O)N[C@H](C(=O)N[C@H](CC[C@H](Cc2ccccc2)NC(=O)OCc2cncs2)Cc2ccccc2)C(C)C)C2CC2)cs1 | IC50 (Cytochrome P450 3A4): 0.21 µM
16 | > 30 | 20 | CC(C)c1nc(CN(C)C(=O)N[C@@H](CCN(C)C)C(=O)N[C@H](CC[C@H](Cc2ccccc2)NC(=O)OCc2cncs2)Cc2ccccc2)cs1 | 

Row | IC50 (Protease) [µM] | EC50 [1] [µM] | SMILES | also measured
17 | 0.242 | 0.8 | CC(C)[C@H](NC(=O)N(C)Cc1cscn1)C(=O)N[C@H](CC[C@H](Cc1ccccc1)NC(=O)OCc1cncs1)Cc1ccccc1 | IC50 (Cytochrome P450 3A4): 0.14 µM
18 | 0.035 | 0.4 | Cc1nc(CN(C)C(=O)N[C@H](C(=O)N[C@H](CC[C@H](Cc2ccccc2)NC(=O)OCc2cncs2)Cc2ccccc2)C(C)C)cs1 | 
19 | > 30 | > 30 | CC(=O)NCC[C@H](NC(=O)N(C)Cc1csc(C(C)C)n1)C(=O)N[C@@H](CC[C@@H](Cc1ccccc1)NC(=O)OCc1cncs1)Cc1ccccc1 | IC50 (Cytochrome P450 2C19): > 25 µM; IC50 (Cytochrome P450 1A2): > 25 µM; IC50 (Cytochrome P450 2C9): 15.5 µM; IC50 (Cytochrome P450 2D6): 0.8 µM
20 |  | 3 | CC(C)c1nc(CN(C)C(=O)NC(CN(C)C)C(=O)N[C@H](CC[C@H](Cc2ccccc2)NC(=O)OCc2cncs2)Cc2ccccc2)cs1 (some centres not stated) | 
21 | > 30 | > 30 | CC(C)c1nc(CN(C)C(=O)N[C@@H](CCCCN)C(=O)N[C@H](CC[C@H](Cc2ccccc2)NC(=O)OCc2cncs2)Cc2ccccc2)cs1 | 
22 | > 30 | > 30 | CC(C)c1nc(CN(C)C(=O)N[C@@H](Cc2cnc[nH]2)C(=O)N[C@@H](CC[C@@H](Cc2ccccc2)NC(=O)OCc2cncs2)Cc2ccccc2)cs1 | IC50 (Cytochrome P450 2C19): 2.2 µM; IC50 (Cytochrome P450 1A2): 15 µM; IC50 (Cytochrome P450 2C9): 4.7 µM; IC50 (Cytochrome P450 2D6): 0.4 µM
23 | 0.05 | 1.5 | CC(C)c1nc(CN(C)C(=O)N[C@@H](CO)C(=O)N[C@H](CC[C@H](Cc2ccccc2)NC(=O)OCc2cncs2)Cc2ccccc2)cs1 | 
24 | 11.8 | > 30 | CC(C)c1nc(CN(C)C(=O)N[C@@H](COCc2ccccc2)C(=O)N[C@H](CC[C@H](Cc2ccccc2)NC(=O)OCc2cncs2)Cc2ccccc2)cs1 | 
25 | > 30 | > 30 | CC(C)c1nc(CN(C)C(=O)N[C@@H](Cc2cn(C)cn2)C(=O)N[C@H](CC[C@H](Cc2ccccc2)NC(=O)OCc2cncs2)Cc2ccccc2)cs1 | 
26 | 0.386 | 0.7 | CC(C)[C@H](NC(=O)N(C)Cc1cncs1)C(=O)N[C@H](CC[C@H](Cc1ccccc1)NC(=O)OCc1cncs1)Cc1ccccc1 | IC50 (Cytochrome P450 3A4): 0.08 µM
27 |  | 0.65 | COC[C@H](NC(=O)N(C)Cc1csc(C(C)C)n1)C(=O)N[C@H](CC[C@H](Cc1ccccc1)NC(=O)OCc1cncs1)Cc1ccccc1 | 
28 | 8 | > 30 | CC(C)c1nc(CN(C)C(=O)N[C@@H](CCNS(C)(=O)=O)C(=O)N[C@H](CC[C@H](Cc2ccccc2)NC(=O)OCc2cncs2)Cc2ccccc2)cs1 | 
29 | 2 | 18 | CC(=O)NCC[C@H](NC(=O)N(C)Cc1csc(C(C)C)n1)C(=O)N[C@H](CC[C@H](Cc1ccccc1)NC(=O)OCc1cncs1)Cc1ccccc1 | 
30 | 0.143 | 1 | CC(C)c1nc(CN(C)C(=O)N[C@@H](CC(N)=O)C(=O)N[C@H](CC[C@H](Cc2ccccc2)NC(=O)OCc2cncs2)Cc2ccccc2)cs1 | 
31 | 0.039 | 2.7 | CC(C)c1nc(CN(C)C(=O)N[C@@H](CCO)C(=O)N[C@H](CC[C@H](Cc2ccccc2)NC(=O)OCc2cncs2)Cc2ccccc2)cs1 | 

Row | SMILES | IC50 (Protease) [µM] | EC50 [1] [µM] | also measured
32 | CC(C)c1nc(CN(C)C(=O)N[C@@H](CCN2CCOCC2)C(=O)N[C@H](CC[C@H](Cc2ccccc2)NC(=O)OCc2cncs2)Cc2ccccc2)cs1 [COBICISTAT] | > 30 | > 30 | IC50 (Cytochrome P450 2C19): > 25 µM; IC50 (Cytochrome P450 1A2): > 25 µM; IC50 (Cytochrome P450 2D6): 9.2 µM
33 | CC(C)c1nc(CN(C)C(=O)N[C@H](CCN2CCOCC2)C(=O)N[C@H](CC[C@H](Cc2ccccc2)NC(=O)OCc2cncs2)Cc2ccccc2)cs1 | > 30 | > 30 | IC50 (Cytochrome P450 2C19): 1.3 µM; IC50 (Cytochrome P450 1A2): > 25 µM; IC50 (Cytochrome P450 2D6): 3.1 µM
